According to patent US8765949B2, “CCR2 receptor antagonists and uses thereof” (Boehringer Ingelheim International GmbH, priority 2009, dated 2014):

Molecular target: T1, CCR2 (Homo sapiens, UniProt P41597)
T1 construct: Membranes were prepared from THP-1 cells; endogenous in cells; host or cells: THP-1 (human acute monocytic leukaemia cells), membrane preparation
T1 sequence (P41597 1-360 isoform P41597-2): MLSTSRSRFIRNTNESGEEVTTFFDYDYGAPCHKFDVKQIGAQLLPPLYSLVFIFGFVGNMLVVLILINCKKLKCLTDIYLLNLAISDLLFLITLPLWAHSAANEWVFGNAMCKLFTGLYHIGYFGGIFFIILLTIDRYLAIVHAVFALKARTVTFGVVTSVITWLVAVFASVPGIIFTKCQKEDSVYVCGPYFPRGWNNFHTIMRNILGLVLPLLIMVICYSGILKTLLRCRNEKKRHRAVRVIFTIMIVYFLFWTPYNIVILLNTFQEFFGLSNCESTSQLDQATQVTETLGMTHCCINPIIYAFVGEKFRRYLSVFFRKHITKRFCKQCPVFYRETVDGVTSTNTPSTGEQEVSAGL
Test: CCR2 receptor membrane binding assay ([125I]MCP-1, THP-1 membranes, SPA beads)
Details: dissociation constant hKi; THP-1 cell membranes, [125I]MCP-1, bound radioactivity after 8 h
Description: The above exemplary substances have been tested for binding to CCR2 using a binding assay as outlined herein below:
THP-1 cells (human acute monocytic leukaemia cells) were cultured under standardized conditions at 37° C. and 5% CO2 in a humidified incubator. THP-1 cells were cultivated in RPMI 1640 medium (Gibco 21875) containing 1% MEM-NEAA (Gibso 11140) 2 mM L-glutamine, 1.5 g/L sodium bicarbonate, 4.5 g/L glucose, 10 mM HEPES and 1.0 mM sodium pyruvate, 90%; 10% fetal calf serum (FCS Gibco 10500-064).
Membranes were prepared from THP-1 cells. THP-1 cells were centrifuged at 300×g at 4° C. for 10 min. The cell pellet was resuspendet in Phosphate Buffer Saline (PBS, including 10 μM Pefabloc and a protease inhibitor mix ‘complete’, Boehringer Mannheim (1 tablet/50 ml)), to a concentration of […]. The membrane preparation was performed by disrupting the cells by nitrogen […] (at 50 bar, for 1 h) in a “Nitrogen Bombe” (Parr Instrument). Cell debris was removed by centrifugation (800×g at 4° C., 1 min). The supernatant was centrifuged at 80000×g, 4° C. for 30 min to sediment the cell membranes. Usually 50 mg of protein (Bradford assay) were yielded from 1×10E9 cells. The membranes were resuspendet in 25 mM HEPES, 25 mM MgCl2, 1 mM CaCl2, 10% Glycerine for storage in aliquots at −80° C. in 25 mM HEPES, 25 mM MgCl2, 1 mM CaCl2, 10% Glycerine and stored at −80° C.
Receptor Membrane Binding Assay:
Perkin Elmer NEX 332 Jod 125 MCP-1, Stock: 2200 Ci/mmol solved in 2000 μl assay buffer, stored at −20° C. THP-1 membrane were adjusted with 25 mM HEPES, pH 7.2; 5 mM MgCl2; 0.5 mM CaCl2; 0.2% BSA assay buffer to a concentration of 2.5 μg/15 μl. Amersham Biosciences PVT-WGA Beads (RPNQ0001) were adjusted with assay buffer to a concentration of 0.24 mg/30 μl. For preparation of the membrane-bead-suspension membranes and beads were incubated for 30 min at RT under rotation (60 rpm) with a ratio of 1:2. Test compounds dissolved in 100% DMSO to a concentration of 10 mM and are further diluted with 100% DMSO to 1 mM. All additional compound dilutions were obtained with assay buffer, final 1% DMSO. Compounds, membrane-bead-suspension and [125I]MCP-1 (ca. 25000 cpm/10 μl) were incubated. Bound radioactivity was determined by scintillation counter after 8 h. Determination of affinity of test compounds (dissociation constant hKi) is calculated by iterative fitting of experimental data using the “easy sys” program, which is based on law of mass action (Schittkowski K. (1994), Numerische Mathematik, Vol. 68, 129-142).

| Ki | SMILES |
| --- | --- |
| 7 nM | CO[C@@H]1COCC[C@@H]1NC1CCN(C(=O)c2ccnc(NC[C@H]3CCC[C@@H](c4ccc(C)cc4)O3)c2C)CC1 [Example 53a] |
| 2 nM | COc1nc(NC[C@H]2CCC[C@@H](c3ccc(C)cc3)O2)c(C)c(C(=O)N2CCC(N[C@H]3CCOC[C@H]3OC)CC2)n1 [Example 53aa] |
| 1 nM | COc1nc(NC[C@H]2CCC[C@@H](c3ccc(C(F)(F)F)cc3)O2)c(C)c(C(=O)N2CCC(N[C@@H]3CCOC[C@@H]3OC)CC2)n1 [Example 53ab] |
| 0.8 nM | COc1nc(NC[C@H]2CCC[C@@H](c3ccc(C(F)(F)F)cc3)O2)c(C)c(C(=O)N2CCC(N[C@H]3CCOC[C@H]3OC)CC2)n1 [Example 53ac] |
| 0.3 nM | COc1nc(NC[C@H]2CCC[C@@H](c3ccc(OC(F)(F)F)cc3)O2)c(C)c(C(=O)N2CCC(N[C@@H]3CCOC[C@@H]3OC)CC2)n1 [Example 53ad] |
| 0.4 nM | COc1nc(NC[C@H]2CCC[C@@H](c3ccc(OC(F)(F)F)cc3)O2)c(C)c(C(=O)N2CCC(N[C@H]3CCOC[C@H]3OC)CC2)n1 [Example 53ae] |
| 8 nM | COc1nc(NC[C@H]2CCC[C@@H](c3ccccc3)O2)c(C)c(C(=O)N2CCC(N[C@@H]3CCOC[C@@H]3OC)CC2)n1 [Example 53af] |
| 5 nM | COc1nc(NC[C@H]2CCC[C@@H](c3ccccc3)O2)c(C)c(C(=O)N2CCC(N[C@H]3CCOC[C@H]3OC)CC2)n1 [Example 53ag] |
| 0.8 nM | CO[C@H]1COCC[C@H]1NC1CCN(C(=O)c2nc(C(F)(F)F)nc(NC[C@H]3CCC[C@@H](c4ccccc4)O3)c2C)CC1 [Example 53ah] |
| 1.1 nM | CO[C@@H]1COCC[C@@H]1NC1CCN(C(=O)c2nc(C(F)(F)F)nc(NC[C@H]3CCC[C@@H](c4ccccc4)O3)c2C)CC1 [Example 53ai] |
| 0.7 nM | Cc1c(NC[C@H]2CCC[C@@H](c3ccc(OC(F)(F)F)cc3)O2)ncnc1C(=O)N1CCC(N[C@H]2CCOC[C@H]2F)CC1 [Example 53aj] |
| 0.8 nM | Cc1c(NC[C@H]2CCC[C@@H](c3ccc(OC(F)(F)F)cc3)O2)ncnc1C(=O)N1CCC(N[C@@H]2CCOC[C@@H]2F)CC1 [Example 53ak] |
| 0.4 nM | CO[C@H]1COCC[C@H]1NC1CCN(C(=O)c2ncnc(NC[C@H]3CCC[C@@H](c4ccc(SC(F)(F)F)cc4)O3)c2C)CC1 [Example 53al] |
| 0.3 nM | CO[C@@H]1COCC[C@@H]1NC1CCN(C(=O)c2ncnc(NC[C@H]3CCC[C@@H](c4ccc(SC(F)(F)F)cc4)O3)c2C)CC1 [Example 53am] |
| 20 nM | CO[C@@H]1COCC[C@@H]1NC1CCN(C(=O)c2ncnc(NC[C@H]3CCC[C@@H](c4ccc(OC(F)(F)F)cc4)O3)c2C)CC1 [Example 53b] |
| 98 nM | CO[C@H]1COCC[C@H]1NC1CCN(C(=O)c2ncnc(NC[C@@H]3CCC[C@H](c4ccc(OC(F)(F)F)cc4)O3)c2C)CC1 [Example 53c] |
| 19 nM | CO[C@@H]1COCC[C@@H]1NC1CCN(C(=O)c2ncnc(NC[C@@H]3CCC[C@H](c4ccc(OC(F)(F)F)cc4)O3)c2C)CC1 [Example 53d] |
| 16 nM | CO[C@H]1COCC[C@H]1NC1CCN(C(=O)c2ccnc(NC[C@H]3CCC[C@@H](c4ccc(C)cc4)O3)c2C)CC1 [Example 53e] |
| 12 nM | CO[C@H]1COCC[C@H]1NC1CCN(C(=O)c2ncnc(NC[C@H]3CCC[C@@H](c4ccc(OC(F)(F)F)cc4)O3)c2C)CC1 [Example 53f] |
| 16 nM | CO[C@@H]1COCC[C@@H]1NC1CCN(C(=O)c2ccnc(NC[C@H]3CCC[C@@H](c4ccccc4)O3)c2C)CC1 [Example 53g] |
| 2 nM | CO[C@H]1COCC[C@H]1NC1CCN(C(=O)c2cc(NC[C@H]3CCC[C@@H](c4ccc(C)cc4)O3)nc(C(F)(F)F)n2)CC1 [Example 53h] |
| 2 nM | CO[C@@H]1COCC[C@@H]1NC1CCN(C(=O)c2cc(NC[C@H]3CCC[C@@H](c4ccc(C)cc4)O3)nc(C(F)(F)F)n2)CC1 [Example 53i] |
| 21 nM | CO[C@H]1COCC[C@H]1NC1CCN(C(=O)c2nccc(NC[C@H]3CCC[C@@H](c4ccc(C)cc4)O3)c2C)CC1 [Example 53j] |
| 9 nM | CO[C@@H]1COCC[C@@H]1NC1CCN(C(=O)c2nccc(NC[C@H]3CCC[C@@H](c4ccc(C)cc4)O3)c2C)CC1 [Example 53k] |
| 0.5 nM | CO[C@@H]1COCC[C@@H]1NC1CCN(C(=O)c2cc(NC[C@H]3CCC[C@@H](c4ccc(OC(F)(F)F)cc4)O3)nc(C(F)(F)F)n2)CC1 [Example 53l] |

The remaining lines, values behind:

| SMILES | Ki |
| --- | --- |
| CO[C@H]1COCC[C@H]1NC1CCN(C(=O)c2nc(C)nc(NC[C@@H]3CCC[C@H](c4cccc(C)c4)O3)c2C)CC1 [Example 34] | 63 nM |
| CO[C@@H]1COCC[C@@H]1NC1CCN(C(=O)c2nc(C)nc(NC[C@@H]3CCC[C@H](c4cccc(C)c4)O3)c2C)CC1 [Example 35] | 96 nM |
| CO[C@H]1COCC[C@H]1NC1CCN(C(=O)c2ncnc(NC[C@@H]3CCC[C@H](c4ccc(C(F)(F)F)cc4)O3)c2C)CC1 [Example 36] | 51 nM |
| CO[C@@H]1COCC[C@@H]1NC1CCN(C(=O)c2ncnc(NC[C@@H]3CCC[C@H](c4ccc(C(F)(F)F)cc4)O3)c2C)CC1 [Example 37] | 25 nM |
| CO[C@@H]1COCC[C@@H]1NC1CCN(C(=O)c2ncnc(NC[C@H]3CCC[C@@H](c4ccccc4)O3)c2C)CC1 [Example 38] | 6 nM |
| CO[C@@H]1COCC[C@@H]1NC1CCN(C(=O)c2ncnc(NC[C@@H]3CCC[C@H](c4ccccc4)O3)c2C)CC1 [Example 39] | 287 nM |
| CO[C@H]1COCC[C@H]1NC1CCN(C(=O)c2ncnc(NC[C@H]3CCC[C@@H](c4ccccc4)O3)c2C)CC1 [Example 40] | 26 nM |
| CO[C@@H]1COCC[C@@H]1NC1CCN(C(=O)c2ncnc(NC[C@H]3CCC[C@@H](c4ccc(Cl)cc4)O3)c2C)CC1 [Example 41] | 3 nM |
| CO[C@H]1COCC[C@H]1NC1CCN(C(=O)c2ncnc(NC[C@H]3CCC[C@@H](c4ccc(Cl)cc4)O3)c2C)CC1 [Example 42] | 8 nM |
| CO[C@@H]1COCC[C@@H]1NC1CCN(C(=O)c2ncnc(NC[C@@H]3CCC[C@H](c4ccc(Cl)cc4)O3)c2C)CC1 [Example 43] | 39 nM |
| CO[C@H]1COCC[C@H]1NC1CCN(C(=O)c2ncnc(NC[C@@H]3CCC[C@H](c4ccc(Cl)cc4)O3)c2C)CC1 [Example 44] | 166 nM |
| CO[C@@H]1COCC[C@@H]1NC1CCN(C(=O)c2ncnc(NC[C@@H]3CCC[C@H](c4cccc(C(F)(F)F)c4)O3)c2C)CC1 [Example 45] | 6 nM |
| CO[C@H]1COCC[C@H]1NC1CCN(C(=O)c2ncnc(NC[C@@H]3CCC[C@H](c4cccc(C(F)(F)F)c4)O3)c2C)CC1 [Example 46] | 302 nM |
| CO[C@@H]1COCC[C@@H]1NC1CCN(C(=O)c2ncnc(NC[C@H]3CCC[C@@H](c4cccc(C(F)(F)F)c4)O3)c2C)CC1 [Example 47] | 94 nM |
| CO[C@H]1COCC[C@H]1NC1CCN(C(=O)c2ncnc(NC[C@H]3CCC[C@@H](c4cccc(C)c4)O3)c2C)CC1 [Example 48] | 7 nM |
| CO[C@@H]1COCC[C@@H]1NC1CCN(C(=O)c2ncnc(NC[C@H]3CCC[C@@H](c4cccc(C)c4)O3)c2C)CC1 [Example 49] | 4 nM |
| CO[C@H]1COCC[C@H]1NC1CCN(C(=O)c2nc(C)nc(NC[C@H]3CCC[C@@H](c4cccc(C)c4)O3)c2C)CC1 [Example 50] | 9 nM |
| CO[C@@H]1COCC[C@@H]1NC1CCN(C(=O)c2nc(C)nc(NC[C@H]3CCC[C@@H](c4cccc(C)c4)O3)c2C)CC1 [Example 51] | 8 nM |
| CO[C@@H]1COCC[C@@H]1NC1CCN(C(=O)c2ncnc(NC[C@H]3CCC[C@@H](c4ccc(C(F)(F)F)cc4)O3)c2C)CC1 [Example 52] | 1 nM |
| CO[C@H]1COCC[C@H]1NC1CCN(C(=O)c2ncnc(NC[C@H]3CCC[C@@H](c4ccc(C(F)(F)F)cc4)O3)c2C)CC1 [Example 53] | 2 nM |
